Laboratory results from US8956824B2, “Methods for identifying allosteric modulators of ship polypeptides” (British Columbia Cancer Agency Branch, priority 2006, dated 2015).
“Also recorded” adds a separate entry of the source.

Columns and labels:
[1] = tested on: LPS-induced plasma TNFα; test: Mouse septicemia model; type: in vivo; conditions: for plasma TNFα level after LPS challenge: oral, 30 min prior to IP 2 mg/kg LPS, blood 2 h later, AQX-016A 20 mg/kg
Excerpt: Mouse septicemia model. […] Blood was drawn 2 hrs later for determination of plasma TNFα by ELISA. Results are representative of 3 independent experiments.

[2] = molecular target: T1, SHIP1 C2 domain (Mus musculus, UniProt Q9ES52); test: Protein lipid overlay assay, C2 domain; type: binding; conditions: 200 μM AQX-MN100, 30 min pre-incubation
T1 construct: Recombinant SHIP1 C2 domain (amino acid residues 725 to 863); made in house; host or cells: E. coli, pET28C
T1 sequence (Q9ES52 725-863): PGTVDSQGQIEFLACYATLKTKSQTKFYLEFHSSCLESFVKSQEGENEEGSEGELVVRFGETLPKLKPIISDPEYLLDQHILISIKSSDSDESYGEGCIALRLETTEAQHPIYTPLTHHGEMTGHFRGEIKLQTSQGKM
Experimental: Protein Lipid Overlay Assays Protein Lipid Overlay assays were performed essentially as described (23) with minor modifications. Lyophilized phosphatidylinositol-3,4-bisphosphate diC16 (PIP2, Echelon Biosciences, Salt Lake City, Utah) was reconstituted in a 2:1.8 solution of methanol and water. PVDF membranes (Millipore, Missisauga, Ont) were initially wetted in methanol for 1 minute, and washed 3×5 min with water, and gently agitated in TBST buffer (20 mM Tris pH 7.5, 0.15 M NaCl (TBS) with 0.05% Tween 20) at 23° C. overnight. The treated membranes were air-dried and dilutions of reconstituted lipids were spotted in 1 μl aliquots to give the indicated amount of PIP2 per membrane spot. The membranes were dried completely and blocked with blocking buffer (3% BSA in TBS with 0.05% NaN3) for 1 h at 23° C. on a gentle shaker. Purified, recombinant C2 domain was diluted into blocking buffer (5 μM final) and treated with 200 μM AQX-MN100 or EtOH control for 30 min at 23° C. prior to overnight incubation with the PIP2 spotted membranes. The membranes were washed 10 times over 50 min in TBST buffer at 23° C. and were incubated with anti-His6 mouse IgG (Qiagen, Missisauga, Ont) for 1 hour at 23° C. with gentle rocking. […] The membranes were washed 3 times in TBST over 15 min at 23° C. and the bound proteins were detected and quantified on a Li-Cor Odyssey scanner (Lincoln, Nebr.). […]

[3] = molecular target: T2, C2 domain deleted (ΔC2) SHIP1 enzyme (Mus musculus, UniProt Q9ES52, DEL725-860/G861A/K862A/M863A); test: Scintillation proximity assay, ΔC2 SHIP1; type: binding; conditions: 5 μCi
T2 construct: Full length, wild-type SHIP1 enzyme (wt) or SHIP1 enzyme in which the PH or C2 domains were deleted; made in house; 293T cells are stated only for the wild-type enzyme
T2 sequence (Q9ES52 with tags, fused parts or gaps DEL725-860/G861A/K862A/M863A limits assumed): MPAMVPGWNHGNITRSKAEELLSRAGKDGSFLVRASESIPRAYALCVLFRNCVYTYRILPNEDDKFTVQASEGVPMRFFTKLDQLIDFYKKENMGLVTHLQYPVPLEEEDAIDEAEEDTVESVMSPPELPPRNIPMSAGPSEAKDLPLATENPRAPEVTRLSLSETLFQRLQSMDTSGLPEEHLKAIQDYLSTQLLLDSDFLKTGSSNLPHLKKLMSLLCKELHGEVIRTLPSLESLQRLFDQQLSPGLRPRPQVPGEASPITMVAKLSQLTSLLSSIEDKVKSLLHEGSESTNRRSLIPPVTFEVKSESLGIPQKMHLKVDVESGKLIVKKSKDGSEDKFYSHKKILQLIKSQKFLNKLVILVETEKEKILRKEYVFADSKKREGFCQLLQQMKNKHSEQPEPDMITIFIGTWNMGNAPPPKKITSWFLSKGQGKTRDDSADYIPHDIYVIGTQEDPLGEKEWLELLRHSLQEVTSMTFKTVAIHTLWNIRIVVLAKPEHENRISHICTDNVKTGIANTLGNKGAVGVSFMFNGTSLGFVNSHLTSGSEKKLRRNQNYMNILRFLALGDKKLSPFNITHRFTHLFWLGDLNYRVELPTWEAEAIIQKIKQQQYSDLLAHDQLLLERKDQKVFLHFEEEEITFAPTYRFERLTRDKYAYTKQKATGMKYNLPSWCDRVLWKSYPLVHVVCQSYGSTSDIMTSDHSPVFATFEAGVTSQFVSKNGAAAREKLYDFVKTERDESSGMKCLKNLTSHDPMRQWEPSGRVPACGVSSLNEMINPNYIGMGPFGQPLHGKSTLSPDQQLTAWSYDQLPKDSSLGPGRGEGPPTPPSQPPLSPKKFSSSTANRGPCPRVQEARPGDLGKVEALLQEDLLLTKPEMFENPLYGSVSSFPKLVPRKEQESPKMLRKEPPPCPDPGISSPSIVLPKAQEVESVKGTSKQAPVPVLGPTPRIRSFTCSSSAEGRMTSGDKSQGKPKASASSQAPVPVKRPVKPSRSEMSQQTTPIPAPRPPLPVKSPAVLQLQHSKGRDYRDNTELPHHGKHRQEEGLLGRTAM
Experimental: Scintillation Proximity Assays AQX-MN100 was radiolabeled with tritium by GE Healthcare (Piscataway, N.J.) to a specific activity of 42 Ci/mmole. Copper chelate (His-Tag) YSi YSi SPA Scintillation Beads (GE Healthcare ,Piscataway, NJ) were diluted in 0.25% BSA/TBS to 1.5 mg/mL and recombinant, His6-tagged protein added at the indicated concentrations: wild-type (1 pM), ΔC2 SHIP enzyme (1 pM) or C2 domain (10 nM). Protein was allowed to bind 1 h at 23° C., and 250 μg of beads were aliquoted per well of a 96-well plate. 5 μCi of [3H]-AQX-MN100 was added per well, the plate gently agitated for 30 min and the amount of bead associated radioactivity quantified by counting in a Wallac BETAPLATE™ plate scintillation counter. Results are representative of 3 independent experiments.

SMILES | bioavailability ([1]; concluded from septicemia (oral) and cutaneous anaphylaxis (topical) models) | plasma TNFα level after LPS challenge [1] | inhibition of C2 domain binding to phosphatidylinositol lipid (PI-3,4-P2 / PIP3) [2] | binding of [3H]-AQX-MN100 to SHIP1 lacking its C2 domain [3]
Cc1cc(O)c(O)c2c1[C@]1(C)CC[C@H]3C(C)(C)CCC[C@]3(C)[C@H]1C2 [AQX-016A] | both orally and topically bioavailable | reduced the level of TNFα to the same extent as the control | – | –
Cc1cc(O)cc2c1[C@]1(C)CC[C@H]3C(C)(C)CCC[C@]3(C)[C@H]1C2 [AQX-MN100] | – | efficiently inhibited the LPS-induced elevation of plasma TNFα levels; also recorded: inhibits LPS-induced plasma TNFα levels in mice | could compete with PI-3,4-P2 for binding; also recorded: inhibits the binding of the C2; also recorded: is inhibited | C2 domain is required for SHIP1 to bind; also recorded: requires the C2 domain to bind
